Source: US20040009899A1, “Treating dominant disorders” (priority 2002, published 2004)

How the values were obtained:
Assay type in all cases: in vivo, mouse
[1] = test system: R6/2 mice; assay: Brain weight / brain atrophy of treated R6/2 mice
Method: (§1) Experiments were conducted to determine whether PNA-mediated inhibition of mutant huntingtin expression increased survival and/or reversed features of pathophysiology. R6/2 and non-transgenic mice were divided into two groups of three to five mice each, and treated with either HDs or ACSF for approximately ten weeks, beginning at five to six weeks of age. Treated animals received a dose of 0.15 mg/kg of the HDs PNA oligomer, administered by continuous infusion through an Alzet pump. All ACSF-treated transgenic mice died by three months of age.
At 9 weeks of age, the mice in each group received saline (group 1) or HDs at 2.0 mg/kg, 5.0 mg/kg, or 20.0 mg/kg (groups 2, 3, and 4, respectively) by i.p. injection every 48 hours. The injections continued through 13 weeks of age (i.e., treatment for […]). Weight stability, clasping behavior, motility, and motor skill were assessed weekly during the treatment period. At the time of death or after the treatment period, the brain of each mouse was removed using standard methods. The brains were divided into hemispheres, and one hemisphere of each brain was saved for protein and mRNA analysis. The remaining hemispheres were fixed directly in 10% formalin for 5-7 days. After fixing, the brain hemispheres were weighed individually and processed for sectioning and pathophysiology.

[2] = test system: human HD transgene; assay: Western immunoblot of human HD transgene (htt) expression in PNA-treated R6/1 mice
Method: Cannulation and microsurgery—method 1: B6CBA, R6/1, and R6/2 mice were obtained from The Jackson Laboratory (Bar Harbor, Me.). Mice were anesthetized via intraperitoneal (i.p.) injection with 100 mg/kg of a ketamine/xylazine solution containing 8 mg/mL ketamine and 1 mg/mL xylazine in 0.9% saline. Once anesthetized, each mouse was cannulated. Each anesthetized mouse was placed in a Stoelting Stereotaxic Frame with a mouse adapter (Stoelting Instruments, Wood Dale, Ill.). An incision was made using a scalpel, and the skin and tissue were pulled back with swabs to reveal the skull. The cannulation site was positioned for optimum access to the ventricle, at coordinates AP −0.2 mm, Horiz −1 mm from bregma. A cannula entry port and two bone screw ports were opened in the skull using a Dremel Flex Shaft Drill (Stoelting Instruments) with a 2.1 mm burr for the guide cannula port and a 0.7 mm burr for the bone screws (Fine Science Tools, Foster City, Calif.). Two 4.0 mm long bone screws (0.85 diameter) were placed far enough into the bone screw ports to fasten securely. After placing the bone screws, a cannula system (Plastics One, Roanoke, Va.) including a guide cannula (C315Gs-5/Spc), a dummy cannula (C313Dcs-5Spc), an injection cannula (C3151S-5.2/Spc), and a connector assembly (C313C) was placed in the guide cannula port. The guide cannula was positioned 1.5 mm into the brain using a stereotaxic needle and was secured to the bone screws and incision with dental cement. Once the dental cement hardened, the stereotaxic needle was removed and both the injection cannula and dummy cannula were placed within the guide cannula and secured to the connector assembly. Proper cannula placement was confirmed in several mice by injecting bromophenol blue dye into the ventricular space and noting that only the ventricle was stained. […]
Following the treatment period, mice were anesthetized with ether and sacrificed by cervical dislocation. […] Following centrifugation, the supernatants were removed and protein concentrations were quantified by Bradford assays using a BSA standard. […]

[3] = test system: R6/2 mice; assay: Body weight of treated R6/2 mice
Method: as §1
In other experiments, R6/2 mice were divided into five groups (designated groups 1-5) containing eight to ten animals each. Groups 1-4 received either saline (group 1) or a specific amount of HDs (groups 2-4). Group 5 included untreated R6/2 mice. A sixth group included untreated non-transgenic B6CBA control mice. At 8 weeks of age, each mouse was weighed to establish a weight stability baseline. Baselines for clasping behavior, motility, and motor skill were established at 9 weeks of age using the methods described in Example 1.
At 9 weeks of age, the mice in each group received saline (group 1) or HDs at 2.0 mg/kg, 5.0 mg/kg, or 20.0 mg/kg (groups 2, 3, and 4, respectively) by i.p. injection every 48 hours. […] Weight stability, clasping behavior, motility, and motor skill were assessed weekly during the treatment period. […]

HDs: sense PNA oligomer, 14 residues, 5′-GGACTGCCGTGCCG-3′ (SEQ ID NO:3), specific for the expanded human HD allele (all peptide nucleic acid (PNA))
general brain atrophy typical of untreated R6/2 mice ([1]; R6/2 mice, 0.15 mg/kg continuous infusion by Alzet pump): did not display the general brain atrophy | recovery in brain hemisphere weight as compared to untreated non-transgenic mice ([1]; R6/2 mice, 20.0 mg/kg i.p. every 48 hours): greatest degree of recovery | brain hemisphere weight ([1]; R6/2 mice, all doses (2.0, 5.0, 20.0 mg/kg i.p. every 48 hours), dose dependent effect): greater than the weights of brain hemispheres from untreated R6/2 mice | brain weight ([1]; two non-surviving treated R6/2 mice, 0.15 mg/kg continuous infusion by Alzet pump): increased brain weight | effectiveness at inhibiting transgene expression relative to random, scrambled PNA ([2]; 25 μg into the ventricle every other day for 4 or 6 days): significantly more effective | effect on expression of the human transgene in the liver ([2]; liver, direct injection into the brain, 4 or 6 days): little effect | inhibition of human HD transgene expression ([2]; striatum, 1 μL of 25 μg/μL into the ventricle every other day for 4 or 6 days, compared to untreated R6/1 controls): dramatic inhibition | weight stability over the treatment period ([3]; R6/2 mice, 5.0 mg/kg i.p. every 48 hours, compared to 2.0 mg/kg or 20.0 mg/kg): more stable weight | body weight over time ([3]; surviving R6/2 mice, 0.15 mg/kg continuous infusion by Alzet pump): continued to gain weight over time
